Test results published in patent US20030203963A1, “Antimicrobial agent” (priority 2001, published 2003).

Assays:
L. monocytogenes = test: Test in milk; assay type: cell-based, Listeria monocytogenes; settings: 2000 ppm, TMGB010605
Protocol: 8.9 ml samples of UHT milk containing 0.5% glucose and the indicator bromocresol purple (0.01%) were prepared and sterilised by autoclaving. The pH before APP addition was pH 6.65. Appropriate stock solutions of APP batch number APP20010215 (at 138 mg/ml) were prepared and filter sterilised. 1 ml of each was added to the milk to prepare tests containing 0, 1000 and 2000 ppm APP. Tests were then inoculated with 100 μl of diluted overnight broth cultures or spore suspensions to give a final inoculum level of ca. 10^3 cfu/ml. These and uninoculated tests were incubated at 20 and 8° C. and examined daily for visible changes compared to uninoculated control.

[1] = system: S. carisbergensis CRA6413; test: Bioscreen growth inhibition test; assay type: cell-based, Saccharomyces carlsbergensis; settings: APP 213, BS010420, 72 h/25° C.
Protocol: (§1) For broth cultures and Bioscreen testing most bacteria were grown in Brain Heart Infusion (BHI, Oxoid, pH 7.4). Lactobacillus sake A10 was grown in de Man, Rogosa, Sharpe medium ([…], Oxoid). Yeasts were grown in Sabouraud Liquid medium (SLM, Oxoid). Most bacteria were cultured at 30° C. Lactic acid bacteria were grown on solid medium in enriched CO2 atmosphere. Clostridium species were grown in Reinforced Clostridial Medium (RCM) at 37° C. anaerobically. Brochothrix thermosphacta fungi and yeasts were grown at 25° C. Fungi were cultured on Malt Extract Agar (MEA, Oxoid).
(§2) An automated Microbiology Reader Bioscreen C was used to measure growth curves of the strains in the presence and absence of APP. The Bioscreen C measures the development of turbidity (i.e. growth) kinetically by vertical photometry in 200 wells of a honeycomb microtitre plate, simultaneously. The system consists of a Bioscreen C analyser, which is an incubator and measurement unit, integrated with a PC, software (BioLink v 5.30), printer and a ‘Honeycomb 2’ cuvette multiwell plate. Growth curve data can be analysed within the BioLink software or exported to programs such as Excel.
(§3) Broth culture media were dispensed in 270 μl volumes into the wells as directed. […] (depending on the micro-organism under investigation) with readings taken every 20 minutes after the trays were shaken. […]

Ps. fluorescens = test: Chicken soup at 8° C. (summary); assay type: cell-based, Pseudomonas fluorescens; settings: Chicken soup at 8° C. pH 5.8
Source text: (§4) A local supermarket brand of cream of chicken soup was used as a model food system. 600 g packs were purchased from the local supermarket. This was a ‘fresh home-made type’ of soup that was stored in the chill cabinet, with a short shelf life. It was chosen because it is a rich, nutritious food system containing a range of food components including meat, dairy and vegetable.
(§5) Ingredients were labelled as: chicken stock (water, duck fat, chicken, salt, flavourings, yeast extracts, pork gelatine, glucose syrup, vegetable concentrate, milk protein, sugar, malto-dextrin, vegetable oil, citric acid, lactose, chicken fat), ilk, chicken (9%), cream (8%), onion, potato, vegetable oil, modified maize starch, wheat flour, lemon juice, salt, white pepper. pH 5.912. Protein: 3.3%; carbohydrate: 4.7%; fat: 7.2%; fibre: 0.2%; sodium: 0.1%
(§6) For the test the soup was mixed 2:1 in water (to facilitate sampling and mixing) and sterilised by autoclaving at 121° C. for 15 minutes. For each experiment the pH of the soup was recorded; this was between pH 5.79-5.88.
For TCS010412/8 (which was incubated at 8° C.), APP batch number APP20010213 (concentration 169 mg APP/ml) was used to prepare tests containing 0, 2000 or 4000 ppm APP. […]
For TCS010521/8 (incubated at 8° C.), samples were prepared in 27.8 g quantities. […]

[2] = system: Br. thermosphacta CRA7883; test: Bioscreen growth inhibition test; assay type: cell-based, Brochothrix thermosphacta; settings: BS010420, 72 h at 25° C., APP20010213
Protocol: as §1, §2, §3

L. monocytogenes 272 = test: Chicken soup trial at 8° C.; assay type: cell-based, Listeria monocytogenes; settings: chicken soup at 8° C.
Source text: as §4, §5, §6
For TCS010412/8 (which was incubated at 8° C.), APP batch number APP20010213 (concentration 169 mg APP/ml) was used to prepare tests containing 0, 2000 or 4000 ppm APP. 5 g of filter-sterilised APP stock solution was added to 94 g of soup, mixed and then 1 ml of a diluted inoculum suspension (cells or spores as appropriate) was added to give a test inoculum level of 10^3 cfu/g. The soup mixture was shaken vigorously to ensure homogeneous distribution of the APP and micro-organisms. The tests were tested by viable count and then incubated at 8° C. and tested on a twice-weekly basis.
For TCS010521/8 (incubated at 8° C.), samples were prepared in 27.8 g quantities. 1.5 g of an APP stock solution was added, and the tests inoculated with 0.3 ml of a suitably diluted cell or spore suspension to give a final inoculum of ca. 10^3 cfu/g. APP was tested at 0, 500 and 1000 ppm, and batch number APP20010213 (at 169 mg/ml) was used. The tests were sampled by viable count and then incubated at 8° C. and tested on a twice-weekly basis.

Most yeasts = test: Lab media at optimum temperature (summary); assay type: cell-based
Protocol: as §1, §2
(§7) Broth culture media were dispensed in 270 μl volumes into the wells as directed. Serial dilutions of a filter-sterilised APP stock solution were then dispensed into the same wells, as appropriate. The wells were inoculated with 30 μl of an appropriately diluted overnight broth culture or spore suspension, to give a final inoculum level of […]. The tests were incubated in the Bioscreen C for either 24 h at 30° C., or 72 h at 25° C. (depending on the micro-organism under investigation) with readings taken every 20 minutes after the trays were shaken. After the incubation period was complete the data were exported to Excel for analysis.

Salmonella spp = test: Lab media at optimum temperature (summary); assay type: cell-based
Protocol: as §1, §2, §7

Lb. sake A10 = test: Test in cooked minced beef slurry; assay type: cell-based, Lactobacillus sake
Protocol: 1 kg of minced beef, purchased from the local butcher, was mixed with 1 litre of BHI. 200 g portion of this meat slurry was autoclaved. When the meat had cooled, the pH was recorded (pH 6.24), and each pot was inoculated with 2.0 ml of 10^5 spores or cells and the meat re-mixed thoroughly. Each inoculated 200 g pot was distributed as 3×50 g portions. To each pot 1 ml of SDW, 5% or 10% APP (Batch No. APP20010215) was added, and the meat was again mixed thoroughly. An initial viable count was performed, the meat was incubated at 8° C. and sampled twice weekly. The pH of the cooked minced beef slurry was 6.24.

[3] = 2000 ppm, TCS010412, APP20010213
[4] = 4000 ppm, TCS010412, APP20010213

## O=C1CC(CO)OC=C1O (stereo not shown) [APP, Ascopyrone P]
L. monocytogenes; milk at 8° C.
  Control of growth: No control observed
L. monocytogenes; milk at 20° C.
  Control of growth: No control observed
[1]
  APP level causing significant inhibition: Enhanced growth
  APP level causing total inhibition: >4000
Ps. fluorescens
  Total inhibition (effect on growth of target organism by 2000 ppm APP): Ps. fluorescens
[2]
  APP level causing significant inhibition: 2000 ppm
  APP level causing total inhibition: 4000 ppm
L. monocytogenes 272; 500 ppm, TCSM010521, APP215
  Effect on growth: No effect with 500 ppm
L. monocytogenes 272; 1000 ppm, TCSM010521, APP215
  Effect on growth: No total inhibition
  Effect on growth rate: slight reduction
L. monocytogenes 272; [3]
  Counts reach: Counts reach <105 with 2000 ppm.
  Counts undetectable after: Counts undetectable after ca 50 days at 2000 ppm
L. monocytogenes 272; [4]
  Counts undetectable after: Counts undetectable after 20 days at 4000 ppm
  Total inhibition for: Total inhibition by 4000 ppm for >60 days.
Most yeasts
  Effect on growth of target organism by 2000 ppm APP (remark in No inhibition column): (enhanced growth)
  No inhibition (effect on growth of target organism by 2000 ppm APP): Most yeasts
Salmonella spp
  Partial inhibition (effect on growth of target organism by 2000 ppm APP): Salmonella spp
Lb. sake A10; 2000 ppm, minced beef slurry at 8° C., pH 6.24, TCM010619
  Effect on growth: No effect with 2000 ppm
Lb. sake A10; Cooked minced beef slurry at 8° C. pH 6.24
  No inhibition (effect on growth of target organism by 2000 ppm APP): Lb. sake
